# Measured values as given in ChEMBL document CHEMBL1129831, “Novel 2,5-disubstituted-1H-pyrroles with high affinity for the dopamine D3 receptor: N-benzyl modifications” (Bioorg Med Chem Lett, 1997).
# pKi: −log10 of the molar value.
# Target: D(3) dopamine receptor (Homo sapiens, UniProt P35462)
# Experiment: Binding affinity, displacement of [125I]iodosulpiride from human Dopamine receptor D3 expressed in CHO cells
# Format: cell-based
# Chain of D(3) dopamine receptor (P35462 whole entry): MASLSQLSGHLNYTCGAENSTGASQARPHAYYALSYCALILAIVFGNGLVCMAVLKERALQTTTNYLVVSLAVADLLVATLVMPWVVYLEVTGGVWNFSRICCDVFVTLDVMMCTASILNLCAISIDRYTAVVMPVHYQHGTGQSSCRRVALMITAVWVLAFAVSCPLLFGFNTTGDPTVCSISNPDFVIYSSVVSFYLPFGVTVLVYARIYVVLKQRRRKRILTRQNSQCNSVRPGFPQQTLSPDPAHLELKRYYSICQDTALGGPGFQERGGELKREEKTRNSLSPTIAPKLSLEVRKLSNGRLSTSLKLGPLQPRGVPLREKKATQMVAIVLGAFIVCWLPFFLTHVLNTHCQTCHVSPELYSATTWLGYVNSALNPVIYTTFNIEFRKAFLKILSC
row,SMILES,pKi
1,CCN(Cc1ccc(-c2cc(S(=O)(=O)CC)ccc2OC)[nH]1)Cc1ccccc1Cl,8.20
2,CCN1[C@@H](c2ccc(-c3cc(S(=O)(=O)CC)ccc3OC)[nH]2)CC[C@H]1c1ccccc1,7.00
3,CCS(=O)(=O)c1ccc(OC)c(-c2ccc(CN3CCCCCC3c3cccc(OC)c3)[nH]2)c1 (stereo not drawn),7.30
4,CCN(Cc1ccc(C)cc1)Cc1ccc(-c2cc(S(=O)(=O)CC)ccc2OC)[nH]1,9.70
5,CCN(Cc1ccc(OC)c(OC)c1)Cc1ccc(-c2cc(S(=O)(=O)CC)ccc2OC)[nH]1,7.90
6,CCN(Cc1ccc2c(c1)OCO2)Cc1ccc(-c2cc(S(=O)(=O)CC)ccc2OC)[nH]1,9.20
7,CCN(Cc1ccc(Cl)cc1)Cc1ccc(-c2cc(S(=O)(=O)CC)ccc2OC)[nH]1,9.40
8,CCN(Cc1ccc(-c2cc(S(=O)(=O)CC)ccc2OC)[nH]1)[C@H](C)c1ccccc1,9.10
9,CCS(=O)(=O)c1ccc(OC)c(-c2ccc(CN3CCCCCC3c3ccc(OC)cc3)[nH]2)c1 (stereo not drawn),8.80
10,CCN(Cc1ccc(OC)cc1)Cc1ccc(-c2cc(S(=O)(=O)CC)ccc2OC)[nH]1,9.60
11,CCS(=O)(=O)c1ccc(OC)c(-c2ccc(C3CCCN3Cc3ccccc3)[nH]2)c1 (stereo not drawn),8.00
12,CCN(Cc1cccc(OC)c1)Cc1ccc(-c2cc(S(=O)(=O)CC)ccc2OC)[nH]1,8.10
13,CCN(Cc1cccc(Cl)c1)Cc1ccc(-c2cc(S(=O)(=O)CC)ccc2OC)[nH]1,8.60

# Results, then the compound that gave them:
row,pKi,SMILES
1,7.00,CCS(=O)(=O)c1ccc(OC)c(-c2ccc(CN3CCCCCC3c3ccccc3C)[nH]2)c1 (stereo not drawn)
2,8.30,CCN(Cc1ccc(-c2cc(S(=O)(=O)CC)ccc2OC)[nH]1)C1CCCc2ccccc21 (stereo not drawn)
3,7.50,CCS(=O)(=O)c1ccc(OC)c(-c2ccc(CN3CCc4ccccc4C3)[nH]2)c1
4,8.80,CCN(Cc1cccc(C)c1)Cc1ccc(-c2cc(S(=O)(=O)CC)ccc2OC)[nH]1
5,8.60,CCN(Cc1ccc(-c2cc(S(=O)(=O)CC)ccc2OC)[nH]1)[C@@H](C)c1ccccc1
6,8.00,CCN1[C@H](c2ccccc2)CC[C@H]1c1ccc(-c2cc(S(=O)(=O)CC)ccc2OC)[nH]1
7,9.10,CCN(Cc1ccc(-c2cc(S(=O)(=O)CC)ccc2OC)[nH]1)C1CCc2ccccc21 (stereo not drawn)
8,8.50,CCN(Cc1ccc(-c2cc(S(=O)(=O)CC)ccc2OC)[nH]1)Cc1ccccc1C
9,8.00,CCN(Cc1ccc(-c2cc(S(=O)(=O)CC)ccc2OC)[nH]1)Cc1ccccc1OC
10,9.10,CCS(=O)(=O)c1ccc(OC)c(-c2ccc(CN3CCCCCC3c3ccc(C)cc3)[nH]2)c1 (stereo not drawn)

# Target: D(2) dopamine receptor (Homo sapiens, UniProt P14416)
# Experiment: Binding affinity, displacement of [125I]iodosulpiride from human Dopamine receptor D2 expressed in CHO cells
# Format: cell-based
# Chain of D(2) dopamine receptor (P14416 whole entry): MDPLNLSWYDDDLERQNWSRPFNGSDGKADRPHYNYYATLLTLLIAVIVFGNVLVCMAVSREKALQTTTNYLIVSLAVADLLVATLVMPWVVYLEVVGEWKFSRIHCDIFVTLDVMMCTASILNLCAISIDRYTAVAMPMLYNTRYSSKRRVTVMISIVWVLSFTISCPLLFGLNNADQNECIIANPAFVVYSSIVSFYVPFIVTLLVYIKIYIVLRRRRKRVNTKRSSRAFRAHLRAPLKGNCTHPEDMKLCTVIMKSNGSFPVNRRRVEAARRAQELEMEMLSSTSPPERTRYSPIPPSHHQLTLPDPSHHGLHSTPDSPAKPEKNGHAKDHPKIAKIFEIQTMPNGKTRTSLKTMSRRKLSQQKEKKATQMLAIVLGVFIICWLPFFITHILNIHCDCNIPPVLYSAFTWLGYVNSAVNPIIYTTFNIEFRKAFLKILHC
row,SMILES,pKi
1,CCN(Cc1ccc(-c2cc(S(=O)(=O)CC)ccc2OC)[nH]1)Cc1ccccc1Cl,7.70
2,CCN1[C@@H](c2ccc(-c3cc(S(=O)(=O)CC)ccc3OC)[nH]2)CC[C@H]1c1ccccc1,6.80
3,CCS(=O)(=O)c1ccc(OC)c(-c2ccc(CN3CCCCCC3c3cccc(OC)c3)[nH]2)c1 (stereo not drawn),6.10
4,CCN(Cc1ccc(C)cc1)Cc1ccc(-c2cc(S(=O)(=O)CC)ccc2OC)[nH]1,9.40
5,CCN(Cc1ccc(OC)c(OC)c1)Cc1ccc(-c2cc(S(=O)(=O)CC)ccc2OC)[nH]1,7.50
6,CCN(Cc1ccc2c(c1)OCO2)Cc1ccc(-c2cc(S(=O)(=O)CC)ccc2OC)[nH]1,8.50
7,CCN(Cc1ccc(Cl)cc1)Cc1ccc(-c2cc(S(=O)(=O)CC)ccc2OC)[nH]1,9.00
8,CCN(Cc1ccc(-c2cc(S(=O)(=O)CC)ccc2OC)[nH]1)[C@H](C)c1ccccc1,8.10
9,CCS(=O)(=O)c1ccc(OC)c(-c2ccc(CN3CCCCCC3c3ccc(OC)cc3)[nH]2)c1 (stereo not drawn),7.60
10,CCN(Cc1ccc(OC)cc1)Cc1ccc(-c2cc(S(=O)(=O)CC)ccc2OC)[nH]1,8.70
11,CCS(=O)(=O)c1ccc(OC)c(-c2ccc(C3CCCN3Cc3ccccc3)[nH]2)c1 (stereo not drawn),7.40
12,CCN(Cc1cccc(OC)c1)Cc1ccc(-c2cc(S(=O)(=O)CC)ccc2OC)[nH]1,7.10
13,CCN(Cc1cccc(Cl)c1)Cc1ccc(-c2cc(S(=O)(=O)CC)ccc2OC)[nH]1,8.00

# Other lines, results leading:
row,pKi,SMILES
1,5.90,CCS(=O)(=O)c1ccc(OC)c(-c2ccc(CN3CCCCCC3c3ccccc3C)[nH]2)c1 (stereo not drawn)
2,7.90,CCN(Cc1ccc(-c2cc(S(=O)(=O)CC)ccc2OC)[nH]1)C1CCCc2ccccc21 (stereo not drawn)
3,7.00,CCS(=O)(=O)c1ccc(OC)c(-c2ccc(CN3CCc4ccccc4C3)[nH]2)c1
4,8.10,CCN(Cc1cccc(C)c1)Cc1ccc(-c2cc(S(=O)(=O)CC)ccc2OC)[nH]1
5,7.60,CCN(Cc1ccc(-c2cc(S(=O)(=O)CC)ccc2OC)[nH]1)[C@@H](C)c1ccccc1
6,7.40,CCN1[C@H](c2ccccc2)CC[C@H]1c1ccc(-c2cc(S(=O)(=O)CC)ccc2OC)[nH]1
7,9.10,CCN(Cc1ccc(-c2cc(S(=O)(=O)CC)ccc2OC)[nH]1)C1CCc2ccccc21 (stereo not drawn)
8,8.20,CCN(Cc1ccc(-c2cc(S(=O)(=O)CC)ccc2OC)[nH]1)Cc1ccccc1C
9,7.80,CCN(Cc1ccc(-c2cc(S(=O)(=O)CC)ccc2OC)[nH]1)Cc1ccccc1OC
10,7.60,CCS(=O)(=O)c1ccc(OC)c(-c2ccc(CN3CCCCCC3c3ccc(C)cc3)[nH]2)c1 (stereo not drawn)

# Target: Dopamine receptors; D2 & D3 (Homo sapiens) (UniProt P14416+P35462)
# Experiment: Ratio of D3 receptor to the D2 receptor
# Format: protein assay
row,SMILES,Ratio
1,CCN(Cc1ccc(-c2cc(S(=O)(=O)CC)ccc2OC)[nH]1)Cc1ccccc1Cl,3
2,CCS(=O)(=O)c1ccc(OC)c(-c2ccc(CN3CCCCCC3c3cccc(OC)c3)[nH]2)c1 (stereo not drawn),15
3,CCN(Cc1ccc(C)cc1)Cc1ccc(-c2cc(S(=O)(=O)CC)ccc2OC)[nH]1,2
4,CCN(Cc1ccc(OC)c(OC)c1)Cc1ccc(-c2cc(S(=O)(=O)CC)ccc2OC)[nH]1,3
5,CCN(Cc1ccc2c(c1)OCO2)Cc1ccc(-c2cc(S(=O)(=O)CC)ccc2OC)[nH]1,5
6,CCN(Cc1ccccc1)Cc1ccc(-c2cc(S(=O)(=O)CC)ccc2OC)[nH]1,3
7,CCN(Cc1ccc(Cl)cc1)Cc1ccc(-c2cc(S(=O)(=O)CC)ccc2OC)[nH]1,3
8,CCN(Cc1ccc(-c2cc(S(=O)(=O)CC)ccc2OC)[nH]1)[C@H](C)c1ccccc1,10
9,CCS(=O)(=O)c1ccc(OC)c(-c2ccc(CN3CCCCCC3c3ccc(OC)cc3)[nH]2)c1 (stereo not drawn),15
10,CCN(Cc1ccc(OC)cc1)Cc1ccc(-c2cc(S(=O)(=O)CC)ccc2OC)[nH]1,8
11,CCS(=O)(=O)c1ccc(OC)c(-c2ccc(C3CCCN3Cc3ccccc3)[nH]2)c1 (stereo not drawn),4
12,CCN(Cc1cccc(OC)c1)Cc1ccc(-c2cc(S(=O)(=O)CC)ccc2OC)[nH]1,10
13,CCN(Cc1cccc(Cl)c1)Cc1ccc(-c2cc(S(=O)(=O)CC)ccc2OC)[nH]1,4

# Further lines, results first:
row,Ratio,SMILES
1,10,CCS(=O)(=O)c1ccc(OC)c(-c2ccc(CN3CCCCCC3c3ccccc3C)[nH]2)c1 (stereo not drawn)
2,3,CCN(Cc1ccc(-c2cc(S(=O)(=O)CC)ccc2OC)[nH]1)C1CCCc2ccccc21 (stereo not drawn)
3,3,CCS(=O)(=O)c1ccc(OC)c(-c2ccc(CN3CCc4ccccc4C3)[nH]2)c1
4,5,CCN(Cc1cccc(C)c1)Cc1ccc(-c2cc(S(=O)(=O)CC)ccc2OC)[nH]1
5,10,CCN(Cc1ccc(-c2cc(S(=O)(=O)CC)ccc2OC)[nH]1)[C@@H](C)c1ccccc1
6,4,CCN1[C@H](c2ccccc2)CC[C@H]1c1ccc(-c2cc(S(=O)(=O)CC)ccc2OC)[nH]1
7,2,CCN(Cc1ccc(-c2cc(S(=O)(=O)CC)ccc2OC)[nH]1)Cc1ccccc1C
8,30,CCS(=O)(=O)c1ccc(OC)c(-c2ccc(CN3CCCCCC3c3ccccc3)[nH]2)c1 (stereo not drawn)
9,30,CCS(=O)(=O)c1ccc(OC)c(-c2ccc(CN3CCCCCC3c3ccc(C)cc3)[nH]2)c1 (stereo not drawn)
